Test results: patent US20240133870A1, “COMBINED TREATMENT FOR CANCER” (Yeda Research and Development Co. Ltd., priority 2021, published 2024)

Assays:
[1] = system: H1975 xenografts; assay: EVOC viability; assay type: cell-based, human; conditions: added to afatinib 3-4 μM
Description: Vehicle—DMSO, FGFRi—AZD4547 2-4 μM, INSRi—linsitinib 2 μM, METi—crizotinib 2-4 μM, EGFRi—afatinib 3-4 μM. Each black dot in a given treatment condition represents a different tumor. P-values were calculated by two-sided t-test. ** P<0.01, * P<0.05. Error bars represent standard error. […] Viability percentage is given per treatment combination. Scale bar represents 50 μm. […] Error bars represent standard error. […] EGFRi—gefitinib 1.6 μM, FGFRi—AZD4547 0.2 μM. The percentage of viable cancer cells was morphologically assessed on H&E stained sections by a pathologist as the ratio between viable cancer cell area and total cancer area (viable cancer cells plus necrotic cancer cells). […] Viability score was calculated based on the entire field of view. […]
Immunohistochemistry of EVOC tissues: To assess response therapy, 4 μm FFPE tissue slices were stained with H&E, or with specific antibodies: anti-pERK (Cell Signaling, #4370) followed by HRP conjugated secondary antibody (anti-Rabbit HRP, ZUC032, ZytoChem) and DAB staining (DAB substrate kit, DAB057, ZytoChem). […] All slides were scanned using the Pannoramic SCAN II (3[sequence]) and analyzed by a pathologist. The percentage of viable cancer cells was morphologically assessed on H&E stained sections by a pathologist as the ratio between viable cancer cell area and total cancer area (viable cancer cells plus necrotic cancer cells).

[2] = system: human NSCLC tumor biopsy; assay: EVOC of NSCLC patient biopsies, viability; assay type: cell-based; conditions: treatment-naïve patient; in combination with osimertinib 4 μM
Excerpt: Error bars represent standard error. […] Scale bar represents 50 μm. […] Error bars represent standard error. […] Scale bar represents 50 μm.
Scale bar represents 50 μm. […] Scale bar represents 50 μm. […] Scale bar represents 50 μm.

[3] = system: HCC4006 xenografts; assay: EVOC viability; assay type: cell-based, human; conditions: crizotinib 8 μM added to erlotinib 4 μM
Description: Vehicle—DMSO, METi-crizotinib 8 μM, EGFRi—erlotinib 4 μM. Each black dot in a given treatment condition represents a different tumor. P-values were calculated by one-sided t-test. * P<0.05. Error bars represent standard error. […] Viability percentage is presented per treatment. Scale bar represents 50 μm.
Freshly resected tumors were cut to 250 μm slices (Compresstome, VF-300) in cold Williams-E medium (Sigma, W1878). Slices were placed on the surface of titanium meshes which were pre-incubated in DMEM/F-12 (HAM) (01-170-1A, BI) supplemented with 10% FCS, 100 units/ml Penicillin and Streptomycin, 2 μmM Glutamine, […], and 2.5 μg/ml Amphotericin B (sigma, A2942), at 37° C. and 80% oxygen/5% CO2. […]
Immunohistochemistry of EVOC tissues: To assess response therapy, 4 μm FFPE tissue slices were stained with H&E, or with specific antibodies: anti-pERK (Cell Signaling, #4370) followed by HRP conjugated secondary antibody (anti-Rabbit HRP, ZUC032, ZytoChem) and DAB staining (DAB substrate kit, DAB057, ZytoChem). […] All slides were scanned using the Pannoramic SCAN II (3[…]) and analyzed by a pathologist. The percentage of viable cancer cells was morphologically assessed on H&E stained sections by a pathologist as the ratio between viable cancer cell area and total cancer area (viable cancer cells plus necrotic cancer cells).

[4] = system: SK-MEL-5 BRAF (V600E) melanoma cells; assay: Co-culture of stroma (WI-38 or HS-5) and cancer cells; assay type: cell-based, human; conditions: co-culture with WI-38; inhibitor added to vemurafenib
Description: SK-MEL-5 BRAF (V600E) melanoma cells were co-cultured with the lung-derived stromal cell line WI-38 or with the bone marrow-derived stromal cell line HS-5 with or without vemurafenib (4 μM). […] Vehicle—DMSO, EGFRi—gefitinib (0.1 μM), EGFRi/HER2i—lapatinib (10 nM), METi—crizotinib (0.1 μM), FGFRi—AZD4547 (50 nM), NFkB/TNFRi—CAPE (10 μM), TGFBRi-LY2109761 (0.5 μM), gp130i—SC144 (1 nM). […] Error bars represent standard error. […] Error bars represent standard error. […] Human BRAF (V600E) melanoma cell lines UACC62 or G361 were used to generate xenograft tumor models in various tissues of nude mice. When tumors reached a volume of 500-700 μmm^3, they were resected, sliced, and cultured ex-vivo in the presence of different drug combinations or DMSO control. Following 4 days of drug treatment, slices were fixed, embedded in paraffin blocks, and subjected to immunohistochemistry, using anti-pERK antibody, or to immuno-fluorescence, using anti-pFGFR1 antibody. BRAFi (vemurafenib, 4 μM), FGFRi (AZD4547, 2 μM). Scale bar represents 50 μm.
Four hours later, the melanoma BRAF (V600E) mutated cell line SK-MEL-5 was seeded on top of the stromal cells at a concentration of 1700 cells per well, or seeded without stroma. […] Concentrations of the inhibitors were based on dose curves with SK-MEL-5. For each inhibitor of potential mechanism of resistance, the maximal concentration with minimal effect (toxicity) on cell growth was selected (Cmax).
To compare rScore value of stroma-mediated resistance with or without a given inhibitor, the rScore values of each inhibitor in the presence of stroma, was calculated. As a reduction in rScore may stem from mere toxicity of the inhibitor, rather than the abrogation of the stroma mediated resistance, each inhibitor rScore was penalized by its toxicity.
rScoreinhibitor=rScoreinhibitor+(rScorestroma−rScoreinhibitor)*tOxicitY(Cmax)inhibitor

[5] = system: G361 melanoma cells; assay: FGFR inhibitor abrogation of factor-mediated resistance (GFP, rScore); assay type: cell-based, human; conditions: vemurafenib 2 μM; EMAPII or AIMP1 10 ng/ml; FGFR inhibitor 0.5 μM
Description: PLX4720—BRAFi, 2 μM; PD184352—MEKi, 1 μM, EMAPII—50 ng/ml. P-value of the difference between GFP(drug)/GFP(no-treatment) and GFP(drug+EMAPII)/GFP(no-treatment), at day 7, was calculated by two-sided t-test. ** p<0.01, *** p<0.001. Average rScore (+/−SE) was calculated from at least four different experiments. […] A total of 69 experiments are shown. […] The effect of FGF2 (10 ng/ml), EMAPII (10 ng/ml) or AIMP1 (10 ng/ml) on G361 μmelanoma cells treated with vemurafenib (2 μM) was measured with or without the FGFR inhibitor PD17307 (0.5 μM). Data represent an average of 4 to 8 experiments. P-value was calculated by two-sided t-test. *** p<0.001. Error bars represent standard error. […] 18 putative AIMP1 receptors were knocked down by shRNAs (on average 6.8 shRNAs/gene) in the G361 cell line. shRNAs toward luciferase served as a negative control. The effect of AIMP1 (50 ng/ml) on the sensitivity to PLX4720 (2 μM) was tested in all knockdown clones and normalized to no-shRNA control. Results represent the average of 3-8 experiments. Error bars represent standard error. P-values were calculated by two-sided t-test relative to luciferase. * p<0.05, Q-value=0.1. […] The average of 4 experiments is presented. Error bars represent standard error. P-value was calculated by two-sided t-test. *** p<0.001.

Row | SMILES | cell viability [1] | cancer cell viability [2] | innate resistance to EGFRi [3] | abrogation of stroma-mediated resistance to vemurafenib [4] | abrogation of EMAPII/AIMP1-mediated resistance [5]
1 | C[C@@H](Oc1cc(-c2cnn(C3CCNCC3)c2)cnc1N)c1c(Cl)ccc(F)c1Cl [crizotinib] | significantly reduced cell viability | synergistic killing effect | reduced innate resistance to the EGFRi erlotinib | abrogated the resistance effect of WI-38 | –
2 | CCN(CC)CCCCNc1ncc2cc(-c3cc(OC)cc(OC)c3)c(NC(=O)NC(C)(C)C)nc2n1 [PD17307] | – | – | – | – | abrogates EMAPII/AIMP1-mediated resistance
